Source: patent publication US20120165319A1, “INHIBITORS OF INTERLEUKIN-1 BETA CONVERTING ENZYME” (VERTEX PHARMACEUTICALS INCORPORATED, priority 1995, published 2012)
Read-outs that look alike come from different tables or passages of the source.

How the values were obtained:
[1] = In vivo rat clearance assay; conditions: for clearance: plasma, iv
Description: In Vivo Rat Clearance Assay
Cannulations of the jugular and carotid vessels of rats under anesthesia were performed one day prior to the pharmacokinetic study. M. J. Free, R. A. Jaffee; ‘Cannulation techniques for the collection blood and other bodily fluids’; in: Animal Models; p. 480-495; N. J. Alexander, Ed.; Academic Press; (1978). Drug (10 mg/mL) was administered via the jugular vein in a vehicle usually consisting of: propylene glycol/saline, containing 100 mM sodium bicarbonate in a 1:1 ratio. Animals were dosed with 10-20 mg drug/kg and blood samples were drawn at 0, 2, 5, 7, 10, 15, 20, 30, 60, and 90 minutes from an indwelling carotid catheter. The blood was centrifuged to plasma and stored at −20° C. until analysis. Pharmacokinetic analysis of data was performed by non-linear regression using standard software such as RStrip (MicroMath Software, UT) and/or Pcnonlin (SCI Software, NC) to obtain clearance values.
Rat plasma was extracted with an equal volume of acetonitrile (containing 0.1% TFA). Samples were then centrifuged at approximately 1,000×g and the supernatant analyzed by gradient HPLC. A typical assay procedure is described below.
A standard curve was run at 20, 10, 5, 2 and 1 μg/mL concentrations.

ICE = molecular target: T1, ICE (Homo sapiens, UniProt P29466); experiment: Enzyme assay with UV-visible substrate (visible ICE assay, Succinyl-Tyr-Val-Ala-Asp-pNitroanilide); assay type: biochemical
T1 sequence (P29466 120-297 limits assumed): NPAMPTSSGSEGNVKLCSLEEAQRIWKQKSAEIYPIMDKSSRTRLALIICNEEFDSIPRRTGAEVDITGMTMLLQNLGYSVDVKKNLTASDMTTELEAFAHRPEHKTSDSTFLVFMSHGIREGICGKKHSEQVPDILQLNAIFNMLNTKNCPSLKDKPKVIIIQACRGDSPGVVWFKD
T1 sequence (P29466 317-404 limits assumed): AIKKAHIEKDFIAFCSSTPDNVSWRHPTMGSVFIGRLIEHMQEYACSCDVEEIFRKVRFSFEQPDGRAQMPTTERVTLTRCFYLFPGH
How it was run: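 Buffer, ICE and inhibitor in DMSO are combined and held 15 min at room temperature. Succinyl-Tyr-Val-Ala-Asp-pNA is then added and absorbance at 405-603 nm tracked for 20 min at 37° C.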

[2] = test system: IL-1β, human peripheral blood mononuclear cells (PBMC); experiment: PBMC cell assay: IL-1β assay with human PBMC or enriched adherent mononuclear cells, LPS-stimulated; assay type: cell-based
How it was run: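 Buffy-coat human PBMC at 6×10^6 cells/ml, or adherent monocytes enriched by 1 h adherence (2.5−3.0×10^5 cells/well), are given 5–6 compound dilutions bracketing the ICE Ki (final DMSO 0.1%) plus LPS at a final 5 ng/ml. They are incubated 16–18 hr at 37 °C, 5% CO2, and supernatant mature IL-1β is measured by ELISA, with duplicate cultures and duplicate ELISAs.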

[3] = Pharmacokinetic studies in the mouse (i.v. clearance, plasma levels); assay type: in vivo; conditions: CD-1, plasma, iv, mouse, 25 mg/kg
Description: Pharmacokinetic Studies in the Mouse
Sample Preparation and Dosing
Compounds were dissolved in sterile TRIS solution (0.02M or 0.05M) at a concentration of 2.5 mg/ml. Where necessary to ensure a complete solution, the sample was first dissolved in a minimum of dimethylacetamide (maximum of 5% of total solution volume) then diluted with the TRIS solution.
The drug solution was administered to CD-1 mice (Charles River Laboratories—26-31 g) via the tail vein at a dose volume of 10 ml/kg giving a drug dose of 25 mg/kg.
Mice were dosed in groups of 5 for each timepoint (generally from 2 minutes to 2 hours) then at the appropriate time the animals were anaesthetised with halothane and the blood collected into individual heparinized tubes by jugular severance. The blood samples were cooled to 0° C. then the plasma separated and stored at −20° C. until assayed.
Drug concentration in the plasma samples were determined by HPLC analysis with UV or MS (ESP) detection. Reverse phase chromatography was employed using a variety of bonded phases from C1 to C18 with eluents composed of aqueous buffer/acetonitrile mixtures run under isocratic conditions.
Quantitation was by external standard methods with calibration curves constructed by spiking plasma with drug solutions to give concentrations in the range of 0.5 to 50 μg/ml.
Prior to analysis the plasma samples were deproteinated by the addition of acetonitrile, methanol, trichloroacetic acid or perchloric acid followed by centrifugation at 10,000 g for 10 minutes. Sample volumes of 20 μl to 50 μl were injected for analysis.
The drug was dissolved in sterile 0.02M Tris to give a 2.5 mg/ml solution which was administered to […] of 5 male CD-1 mice via the tail vein at a dose of 25 mg/kg. At each of the following timepoints: 2, 5, 10, 15, 20, 30, 45, 60, 90 and 120 minutes a group of animals was anaesthetised and the blood collected into heparinized tubes. After separation the plasma was stored at −20° C. until assayed.
Aliquots of plasma (150 μl) were treated with 5% perchloric acid (5 μl) then mixed by vortexing and allowed to stand for 90 minutes prior to centrifugation. The resulting supernatant was separated and 20 μl was injected for HPLC analysis.
Aliquots of plasma (100 μl) were diluted with acetonitrile (100 μl) then mixed by vortexing for 20 seconds before centrifugation for 10 minutes. The resulting supernatant was separated and 20 μl was injected for HPLC analysis.

[4] = test system: IL-1β production, LPS-challenged mice; experiment: In vivo acute assay for efficacy as anti-inflammatory agent: LPS-induced IL-1β production in mice; design: species or system mouse; conditions: for inhibition at 50 mg/kg: Mus musculus, po, LPS challenged mice, compound PO, read-out: percent inhibition of IL-1β production
How it was run: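 CD1 mice (n=6) were challenged with LPS 20 mg/kg IP and given compound IP in olive oil:DMSO:ethanol (90:5:5) 1 h after LPS, or at the time of challenge for some analogs. Blood was taken 7 h after LPS and serum IL-1β was measured by ELISA. Oral gavage at 50 mg/kg was also tested.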

IL-1β, human whole blood = experiment: Whole blood assay for IL-1β production; assay type: cell-based; conditions: * = values obtained upon reassay, read-out: Whole human blood IC50
How it was run: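 Human whole blood collected on Na2EDTA was treated with serially diluted compound in saline and then stimulated with LPS at 5.0 ng/ml final, for 16-18 h at 30 °C, in duplicate or triplicate. Plasma IL-1β was measured by ELISA at 1:200 dilution.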

[5] = Homo sapiens, PBMC, * = values obtained upon reassay
[6] = % inhibition of IL-β production, LPS-challenged mice, 50 mg/kg (Table 3)
[7] = * = values obtained upon reassay
[8] = 0 h, administered 0 h relative to time of LPS challenge
[9] = 2 h, administered −2 h relative to time of LPS challenge

COc1cccc2nc(C(=O)[C@H](CC(=O)O)NC(=O)CN3C(=O)[C@@H](NC(=O)CCc4ccccc4)CN(C(=O)CCc4ccccc4)c4ccccc43)oc12 [Compound 108b, 4-(7-Methoxybenzoxazol-2-yl)-4-oxo-3(S)-{2-[2-oxo-5-(3-phenylpropionyl)-3(S)-(3-phenylpropionylamino)-2,3,4,5-tetrahydrobenzo[b][1,4]diazepin-1-yl]-acetylamino}butyric acid]
clearance ([1]; 10-20 mg/kg): > 100 mL/min/kg

CS(=O)(=O)N[C@H]1CCC(=O)N2CCC[C@@H](C(=O)N[C@@H](CC(=O)O)C(=O)c3nc4cc(Cl)cc(Cl)c4o3)N2C1=O [Compound 223b, [3S(1S,9S)]-4-(5,7-Dichlorobenzoxazol-2-yl)-3-(6,10-dioxo-9-methylsulphonylamino-1,2,3,4,7,8,9,10-octahydro-6H-pyridazino[1,2-a][1,2]diazepine-1-carboxamido)-4-oxobutanoic acid]
Ki (ICE; Table 5): 99 nM | IC50 [2, 5]: 5000 nM | clearance [3]: > 100 mL/min/kg

COc1cccc(NC(=O)NN2CCC(=O)N3CCC[C@@H](C(=O)N[C@H](C=O)CC(=O)O)N3C2=O)c1 [Compound 265c, [3S(4S)]3-[6,10-Dioxo-7-(3-methoxyphenylureido)-1,2,3,4,7,8,9,10-octahydro-6H-pyridazino[1,2-a][1,2,4]triazepine-4-carboxamido]-4-oxobutanoic acid]
Ki (ICE; Table 17): 1100 nM | IC50 ([2]; Homo sapiens, PBMC, Table 17): 4500 nM | clearance ([1]; Table 17): 32 mL/min/kg

COc1ccccc1NC(=O)NN1CCC(=O)N2CCC[C@@H](C(=O)N[C@H](C=O)CC(=O)O)N2C1=O [Compound 265d, [3S(4S)]3-[6,10-Dioxo-7-(2-methoxyphenylureido)-1,2,3,4,7,8,9,10-octahydro-6H-pyridazino[1,2-a][1,2,4]-triazepine-4-carboxamido]-4-oxobutanoic acid]
Ki (ICE; Table 17): 500 nM | IC50 ([2]; Homo sapiens, PBMC, Table 17): 1500 nM | clearance ([1]; Table 17): 35 mL/min/kg

CS(=O)(=O)N[C@H]1CCC(=O)N2CCC[C@@H](C(=O)N[C@@H](CC(=O)O)C(=O)COc3cccnc3)N2C1=O [Compound 283b, [3S(1S,9S)]3-(6,10-Dioxo-9-methanesulphonamido-1,2,3,4,7,8,9,10-octahydro-6H-pyridazino[1,2-a][1,2]diazepine-1-carboxamido)-4-oxo-5(3-pyridyloxy)pentanoic acid]
IC50 ([2]; Table 17): 1750 nM | Clearance Rat, i.v. ([1]; Table 17): 41 mL/min/kg

O=C[C@H](CC(=O)O)NC(=O)[C@@H]1CCCN2C(=O)CC[C@H](NS(=O)(=O)c3ccccc3)C(=O)N12 [Compound 427]
Ki (ICE; Table 5): 180 nM | IC50 [2, 5]: 4500 nM | clearance ([1]; 10-20 mg/kg): 36 mL/min/kg

O=C[C@H](CC(=O)O)NC(=O)[C@@H]1CCCN2C(=O)CC[C@H](NC(=O)c3ccc4ncccc4c3)C(=O)N12 [Compound 438]
Ki (ICE; Table 5): 28 nM | IC50 [2, 5]: 1000 nM | clearance ([1]; 10-20 mg/kg): 22 mL/min/kg | IP % Inhibition [4, 6]: 40% | POS Inhibition ([4]; % inhibition of IL-β production, LPS-challenged mice, PO, 50 mg/kg (Table 3)): 13%

COc1ccc(C(=O)N[C@H]2CCC(=O)N3CCC[C@@H](C(=O)N[C@H](C=O)CC(=O)O)N3C2=O)cc1 [Compound 452]
Ki (ICE; Table 5): 4.5 nM | IC50 [2, 7]: 800 nM | IC50 [2, 5]: 600 nM | clearance ([1]; 10-20 mg/kg): 27.3 mL/min/kg | inhibition at 50 mg/kg [4, 8]: 89% | inhibition at 50 mg/kg ([4]; 1 h, administered +1 h relative to time of LPS challenge): 70% | inhibition at 50 mg/kg [4, 9]: 28%

Nc1ccc(C(=O)N[C@H]2CCC(=O)N3CCC[C@@H](C(=O)N[C@H](C=O)CC(=O)O)N3C2=O)cc1Cl [Compound 481]
Ki (ICE; Table 5): 1.2 nM | IC50 (IL-1β, human whole blood): 500 nM | IC50 (IL-1β, human whole blood; Homo sapiens): 600 nM | clearance ([1]; 10-20 mg/kg): 34 mL/min/kg | inhibition at 50 mg/kg [4, 8]: 0% | inhibition at 50 mg/kg [4, 9]: 27%

O=C(O)C[C@H](NC(=O)[C@@H]1CCCN2C(=O)CC[C@H](NC(=O)c3ccccc3)C(=O)N12)C(=O)CSc1nccs1 [Compound 510a, [3S(1S,9S)]3-(9-Benzoylamino-6,10-dioxo-1,2,3,4,7,8,9,10-octahydro-6H-pyridazino[1,2-a][1,2]diazepine-1-carboxamido)-5-(2-mercaptothiazole)-4-oxopentanoic acid]
Ki (ICE; Table 17): 65 nM | IC50 ([2]; Homo sapiens, PBMC, Table 17): 200 nM | clearance ([3]; Table 17): 267 mL/min/kg

O=C[C@H](CC(=O)O)NC(=O)CN1C(=O)[C@@H](NC(=O)c2ccccc2)CN(C(=O)Cc2ccccc2)c2ccccc21 [Compound 605b, (3S)-3-[(3S)-2-Oxo-3-benzoylamino-5-phenylacetyl-2,3,4,5-tetrahydro-1H-1,5-benzodiazepin-1-acetylamino]-4-oxo-butyric acid]
Ki (ICE; Table 5): 45 nM | IC50 [2, 5]: 10000 nM | clearance [3]: 97 mL/min/kg

O=C[C@H](CC(=O)O)NC(=O)CN1C(=O)[C@@H](NC(=O)c2ccccc2)CN(C(=O)c2ccccc2)c2ccccc21 [Compound 605c, (3S)-3-[(3S)-2-Oxo-3-benzoylamino-5-benzoyl-2,3,4,5-tetrahydro-1H-1,5-benzodiazepin-1-acetylamino]-4-oxo-butyric acid]
Ki (ICE; Table 5): 615 nM | IC50 [2, 5]: 4500 nM | clearance [3]: 37 mL/min/kg

O=C[C@H](CC(=O)O)NC(=O)[C@@H]1CCCN2C(=O)CC[C@H](NC(=O)C(=O)c3ccccc3)C(=O)N12 [Compound 2002, [3S(1S,9S)]3-(9-Benzoylformylamino-6,10-dioxo-1,2,3,4,7,8,9,10-octahydro-6H-pyridazino[1,2-a][1,2]-diazepine-1-carboxamido)-4-oxobutanoic acid]
Ki (ICE; Table 5): 4 nM | IC50 [2, 7]: 860 nM | IC50 [2, 5]: 810 nM | clearance ([1]; 10-20 mg/kg): 32 mL/min/kg | IP % Inhibition [4, 6]: 78% | inhibition at 50 mg/kg [4, 8]: 87% | inhibition at 50 mg/kg [4, 9]: 5%
